Measurements reported in US6800653B2, “Epothilone derivatives” (priority 2001, dated 2004).
Like-named read-outs stand apart in the source and are kept apart here.

Assays:
calf brain tubulin = test: In vitro tubulin polymerization; type: biochemical; conditions: interpolated concentration inducing an initial slope of 0.01 OD/minute; 1.0 mg/ml microtubule protein, 37°; read-out: Tubulin assay EC0.01
Description: In vitro Tubulin Polymerization
Twice cycled (2×) calf brain tubulin was prepared following the procedure of Williams and Lee (see Williams, R. C., Jr., and Lee, J. C. Preparation of tubulin from brain. Methods in Enzymology 85, Pt. D: 376-385, 1982) and stored in liquid nitrogen before use. Quantification of tubulin polymerization potency is accomplished following a modified procedure of Swindell, et al., (see Swindell, C. S., Krauss, N. E., Horwitz, S. B., and Ringel, L. Biologically active taxol analogues with deleted A-ring side chain substituents and variable C-2′ configurations. J. Med. Chem. 34: 1176-1184, 1991). These modifications, in part, result in the expression of tubulin polymerization potency as an effective concentration for any given compound. For this method, different concentrations of compound in polymerization buffer (0.1M MES, 1 mM EGTA, 0.5 mM MgCl2, pH 6.6) are added to tubulin in polymerization buffer at 37° in microcuvette wells of a Beckman (Beckman Instruments) Model DU 7400 UV spectrophotometer. A final microtubule protein concentration of 1.0 mg/ml and compound concentration of generally 2.5, 5.0, and 10 μM are used. Initial slopes of OD change measured every 10 seconds were calculated by the program accompanying the instrument after initial and final times of the linear region encompassing at least 3 time points were manually defined. Under these conditions linear variances were generally <10^−6, slopes ranged from 0.03 to 0.002 absorbance unit/minute, and maximum absorbance was 0.15 absorbance units. Effective concentration (EC0.01) is defined as the interpolated concentration capable of inducing an initial slope of 0.01 OD/minute rate and is calculated using the formula: EC0.01=concentration/slope. EC0.01 values are expressed as the mean with standard deviation obtained from 3 different concentrations. EC0.01 values for the compounds in this invention fall in the range 0.01-1000 μM.

[1] = system: HCT-116 human colon carcinoma cells; test: Cytotoxicity (in vitro) by MTS assay; type: cell-based; conditions: read-out: HTC-116 assay IC50
Description: Cytoxicity was assessed in HCT-116 human colon carcinoma cells by MTS (3-(4,5-dimethylthiazol-2-yl)-5-(3-carboxymethoxyphenyl)-2-(4-sulphenyl)-2H-tetrazolium, inner salt) assay as reported in T. L. Riss, et. al., “Comparison of MTT, XTT, and a novel tetrazolium compound MTS for in vitro proliferation and chemosensitivity assays.,” Mol. Biol. Cell 3 (Suppl.): 184a, 1992. Cells were plated at 4,000 cell/well in 96 well microtiter plates and 24 hours later drugs were added and serial diluted. The cells were incubated at 37° form 72 hours at which time the tetrazolium dye, MTS at 333 μg/ml (final concentration), in combination with the electron coupling agent phenazine methosulfate at 25 μM (final concentration) was added. A dehydrogenase enzyme in live cells reduces the MTS to a form that absorbs light at […] which can be quantitated spectrophotometrically. The greater the absorbance the greater the number of live cells. The results are expressed as an IC50, which is the drug concentration required to inhibit cell proliferation (i.e. absorbance at 450 nm) to 50% of that of untreated control cells.

[2] = HCT-116, 72 hours incubation, MTS

| Compound | EC50 (calf brain tubulin) [µM] | IC50 ([1]; HCT-116, 72 h) [µM] | IC50 [1, 2] [µM] |
| --- | --- | --- | --- |
| C/C(=C\c1csc(C)n1)[C@@H]1C[C@@H]2NC2CCCC(C)[C@H](O)[C@@H](C)C(=O)C(C)(C)[C@@H](O)CC(=O)O1 (relative stereo) [Example 1, [1S-[1R*,3R*(E),7R*,10S*,11R*,12R*,16S*]]-7,11-Dihydroxy-8,8,10,12-tetramethyl-3-[1-methyl-2-(2-methyl-4-thiazolyl)ethenyl]-4-oxa-17-azabicyclo[14.1.0]heptadecane-5,9-dione.] | 14 | 0.0027 |  |
| C/C(=C\c1csc(C)n1)[C@@H]1C[C@H]2C(CCCC(C)[C@H](O)[C@@H](C)C(=O)C(C)(C)[C@@H](O)CC(=O)O1)N2C(=O)CN(C)C (relative stereo) [Example 4, [1S-[1R*,3R*(E),7R*,10S*,11R*,12R*,16S*]]-17-[Dimethylamino)acetyl]-7,11-dihydroxy-8,8,10,12-tetramethyl-3-[1-methyl-2(2-methyl-4-thiazolyl)ethenyl]-4-oxa-17-azabicyclo[14.1.0]heptadecane-5,9-dione.] | > 1000 |  |  |
| C/C(=C\c1csc(C)n1)C1CC2[C@@H](CCC[C@H](C)[C@H](O)[C@@H](C)C(=O)C(C)(C)[C@@H](O)CC(=O)O1)N2C(=O)CC(C)C (relative stereo) [Example 5, [1S-[1R*,3R*(E),7R*,10S*,11R*,12R*,16S*]]-7,11-Dihydroxy-8,8,10,12-tetramethyl-3-[1-methyl-2-(2-methyl-4-thiazolyl)ethenyl]-17-(3-methyl-1-oxobutyl)-4-oxa-17-azabicyclo[14.1.0]heptadecane-5,9-dione.] | 3.5 |  | 0.041 |
| C/C(=C\c1csc(C)n1)C1CC2[C@@H](CCC[C@H](C)[C@H](O)[C@@H](C)C(=O)C(C)(C)[C@@H](O)CC(=O)O1)[N@@]2S(C)(=O)=O (relative stereo) [Example 6, [1S-[1R*,3R*(E), 7R*,10S,11R*,12R*,16S*]]-17-N-Methylsulfonyl-7,11-dihydroxy-8,8,10,12-tetramethyl-3-[1-methyl-2-(2-methyl-4-thiazolyl)ethenyl]-4-oxa-17-azabicyclo[14.1.0]heptadecane-5,9-dione.] | 14 |  | 0.0021 |
| CCNC(=O)N1C2CC(/C(C)=C/c3csc(C)n3)OC(=O)C[C@H](O)C(C)(C)C(=O)[C@H](C)[C@@H](O)[C@@H](C)CCC[C@H]21 (relative stereo) [Example 7, 1S-[1R*,3R*(E),7R*,10S,11R*,12R*,16S*]]-N-Ethyl-7,11-dihydroxy-8,8,10,12-tetramethyl-3-[1-methyl-2-(2-methyl-4-thiazolyl)ethenyl]-4-oxa-17-azabicyclo[14.1.0]heptadecane-5,9-dione-17-carboxamide.] | > 1000 |  |  |
| C/C(=C\c1csc(C)n1)C1CC2[C@@H](CCC[C@H](C)[C@H](O)[C@@H](C)C(=O)C(C)(C)[C@@H](O)CC(=O)O1)[N@@]2C (relative stereo) [Example 8, [1S-[1R*,3R*(E),7R*,10S*,11R*,12R*,16S*]]-7,11-Dihydroxy-8,8,10,12,17-pentamethyl-3-[1-methyl-2-(2-methyl-4-thiazolyl)ethenyl]-4-oxa-17-azabicyclo[14.1.0]heptadecane-5,9-dione] | 2.6 | 0.00013 |  |
| C/C(=C\c1csc(C)n1)[C@@H]1C[C@H]2C(CCCC(C)[C@H](O)[C@@H](C)C(=O)C(C)(C)[C@@H](O)CC(=O)O1)[N@@]2Cc1ccccc1 (relative stereo) [Example 15, [1S-[1R*,3R*(E),7R*,10S,11R*,12R*,16S*]]-17-Benzyl-7,11-dihydroxy-8,8,10,12-tetramethyl-3-[1-methyl-2-(2-methyl-4-thiazolyl)ethenyl]-4-oxa-17-azabicyclo[14.1.0]heptadecane-5,9-dione.] | 35 | 0.023 |  |
| C/C(=C\c1csc(C)n1)[C@@H]1C[C@H]2C(CCCC(C)[C@H](O)[C@@H](C)C(=O)C(C)(C)[C@@H](O)CC(=O)O1)[N@]2S(N)(=O)=O (relative stereo) [Example 16, [1S-[1R*,3R*(E),7R*,10S,11R*,12R*,16S*]]-17-Sulfonylurea-7,11-dihydroxy-8,8,10,12-tetramethyl-3-[1-methyl-2-(2-methyl-4-thiazolyl)ethenyl]-4-oxa-17-azabicyclo[14.1.0]heptadecane-5,9-dione.] | 28 |  | 0.036 |
| CNS(=O)(=O)[N@@]1C2CCCC(C)[C@H](O)[C@@H](C)C(=O)C(C)(C)[C@@H](O)CC(=O)O[C@H](/C(C)=C/c3csc(C)n3)C[C@@H]21 (relative stereo) [Example 17] | 2.3 |  | 0.0078 |
| C/C(=C\c1csc(C)n1)C1CC2[C@@H](CCC[C@H](C)[C@H](O)[C@@H](C)C(=O)C(C)(C)[C@@H](O)CC(=O)O1)[N@@]2S(=O)(=O)N(C)C (relative stereo) [Example 18, [1S-[1R*,3R*(E),7R*,10S*,11R*,12R*,16S*]]-7,11-Dihydroxy-N,N,8,8,10,12-hexamethyl-3-[1-methyl-2-(2-methyl-4-thiazolyl)ethenyl]-5,9-dioxo-4-oxa-17-azabicyclo[14.1.0]heptadecane-17-sulfonamide.] | 1 |  | 0.0002 |
| C/C(=C\c1csc(C)n1)C1CC2[C@@H](CCC[C@H](C)[C@H](O)[C@@H](C)C(=O)C(C)(C)[C@@H](O)CC(=O)O1)[N@@]2S(=O)(=O)N1CCOCC1 (relative stereo) [Example 19, [1S-[1R*,3R*(E),7R*,10S,11R*,12R*,16S*]]-17-Morpholinosulfonyl-7,11-dihydroxy-8,8,10,12-tetramethyl-3-[1-methyl-2-(2-methyl-4-thiazolyl)ethenyl]-4-oxa-17-azabicyclo[14.1.0]heptadecane-5,9-dione.] | 460 |  | 0.16 |
| C/C(=C\c1csc(C)n1)C1CC2[C@@H](CCC[C@H](C)[C@H](O)[C@@H](C)C(=O)C(C)(C)[C@@H](O)CC(=O)O1)N2C(=O)Oc1ccccc1 (relative stereo) [Example 20, [1S-[1R*,3R*(E),7R*,10S,11R*,12R*,16S*]]-7,11-dihydroxy-8,8,10,12-tetramethyl-3-[1-methyl-2-(2-methyl-4-thiazolyl)ethenyl]-4-oxa-17-azabicyclo[14.1.0]heptadecane-5,9-dione-17-carboxylic acid phenyl ester.] | 1.1 |  | 0.0018 |
| CC(=O)N1C2CC(/C(C)=C/c3csc(C)n3)OC(=O)C[C@H](O)C(C)(C)C(=O)[C@H](C)[C@@H](O)[C@@H](C)CCC[C@H]21 (relative stereo) [Example 21, [1S-[1R*,3R*(E),7R*,10S,11R*,12R*,16S*]]-17-Acetyl-7,11-dihydroxy-8,8,10,12-tetramethyl-3-[1-methyl-2-(2-methyl-4-thiazolyl)ethenyl]-4-oxa-17-azabicyclo[14.1.0]heptadecane-5,9-dione.] | 1.2 |  | 0.0009 |
| CC(=Cc1csc(C)n1)C1CC2OC2CCCC(C)C(O)C(C)C(=O)C(C)(C)C(O)CC(=O)O1 (stereo not shown) [Epothilone A, reference compound] |  |  | 0.0044 |
| CC(=Cc1csc(C)n1)C1CC2OC2(C)CCCC(C)C(O)C(C)C(=O)C(C)(C)C(O)CC(=O)O1 (stereo not shown) [Epothilone B, reference compound] |  | 0.0008 |  |
| CCCS(=O)(=O)N1C2CCCC(C)C(O)C(C)C(=O)C(C)(C)C(O)CC(=O)OC(C(C)=Cc3csc(C)n3)CC21 [Example 25, [1S-[1R*,3R*(E),7R*,10S,11R*,12R*,16S*]]-17-N-n-Propylsulfonyl-7,11-dihydroxy-8,8,10,12-tetramethyl-3-[1-methyl-2-(2-methyl-4-thiazolyl)ethenyl]-4-oxa-17-azabicyclo[14.1.0]heptadecane-5,9-dione.] |  |  | 0.094 |
| CC(=Cc1csc(C)n1)C1CC2C(CCCC(C)C(O)C(C)C(=O)C(C)(C)C(O)CC(=O)O1)N2S(=O)(=O)c1cccs1 (stereo not drawn) [Example 26, [1S-[1R*,3R*(E),7R*,10S*,11R*,12R*,16S*]]-17-(2-thienyl)sulfonyl-7,11-dihydroxy-8,8,10,12-tetramethyl-3-[1-methyl-2-(2-methyl-4-thiazolyl)ethenyl]-4-oxa-17-azabicyclo[14.1.0]heptadecane-5,9-dione.] |  |  | 0.03 |
